Source: patent publication US20110105472A1, “Diaminopyrimidines as crop protection agents” (Bayer CropScience AG, priority 2008, published 2011)
Marks after values point to notes of the source that are not given here.

Legend:
Assay type in all cases: physicochemical
[1] = logP by HPLC on reversed-phase columns (C 18), method [a], acidic range pH 2.3
[2] = logP by LC-MS, method [b], acidic range pH 2.7; settings: pH 2.7
physchem = settings: pH 7.8

SMILES | log p ([1]; pH 2.3) | log p [2] | further results
Cl.Clc1cccc(Nc2ncc(Cl)c(NC3CCC3)n2)c1 [Compound 2-1] | 3.09^[a] | – | –
Cl.Clc1cnc(Nc2ccccc2)nc1NC1CCC1 [Compound 2-2] | 1.97^[a] | – | –
COc1cc(Nc2ncc(Cl)c(NC3CCC3)n2)cc(OC)c1.Cl [Compound 2-3] | 2.23^[a] | – | –
CC(=O)c1cccc(Nc2ncc(Cl)c(NC3CCC3)n2)c1.Cl [Compound 2-4] | 2.04^[a] | – | –
CC(C)c1ccc(Nc2ncc(Cl)c(NC3CCC3)n2)cc1.Cl [Compound 2-5] | 2.74^[a] | – | –
CC(C)Oc1ccc(Nc2ncc(Cl)c(NC3CCC3)n2)cc1.Cl [Compound 2-6] | 2.21^[a] | – | –
NS(=O)(=O)c1cccc(Nc2ncc(Cl)c(NC3CCC3)n2)c1 [Compound 23] | – | – | log p ([1]; method [a], HPLC on reversed-phase C 18, acidic range pH 2.3): 1.52[a]; logP (pH2.3) ([1]; pH 2.3, values given in the preparation examples): 1.52
CCCOc1cccc(Nc2ncc(Br)c(NC3CCC3)n2)c1 [Compound 30, 5-Bromo-N^4-cyclobutyl-N^2-(3-propoxyphenyl)pyrimidine-2,4-diamine] | – | – | chromatographic logP [2]: 3.27; chromatographic logP ([1]; pH 2.3): 3.27
CC(C)Oc1ccc(Nc2ncc(Cl)c(NC3CCC3)n2)cc1.Cl [Compound 36, 5-Chloro-N^4-cyclobutyl-N^2-(4-isopropoxyphenyl)pyrimidine-2,4-diamine hydrochloride] | – | 2.44[b] | chromatographic logP ([1]; pH 2.3): 2.21
CC1CC(C)CN(c2cccc(Nc3ncc(Cl)c(NC4CCC4)n3)c2)C1 (stereo not shown) [Compound 51] | 2.94[a]; | – | log p (physchem): 5.82[c]
CC1(Nc2nc(Nc3ccccc3)ncc2Cl)CCC1 [Compound 52, 5-Chloro-N^4-(1-methylcyclobutyl)-N^2-phenylpyrimidine-2,4-diamine] | – | – | chromatographic logP [2]: 2.1; chromatographic logP ([1]; pH 2.3): 2.1
FC(F)(F)c1cnc(Nc2ccccc2)nc1NC1CCC1 [Compound 54, N^4-Cyclobutyl-N^2-phenyl-5-(trifluoromethyl)pyrimidine-2,4-diamine] | – | – | chromatographic logP (physchem): 3.96; chromatographic logP ([1]; pH 2.3): 3.33
O=C1CCCN1c1ccc(Nc2ncc(C(F)(F)F)c(NC3CCC3)n2)cc1 [Compound 56] | 2.51[a]; | – | log p (physchem): 3.01[c]
CSc1cccc(Nc2ncc(C(F)(F)F)c(NC3CCC3)n2)c1 [Compound 57] | 4.05[a]; | – | log p (physchem): 4.36[c]
Fc1ccc(Nc2ncc(C(F)(F)F)c(NC3CCC3)n2)cc1 [Compound 58] | 3.5[a]; | – | log p (physchem): 4[c]
O=C1CCCCCN1c1cccc(Nc2ncc(Br)c(NC3CCC3)n2)c1 [Compound 215] | 2.08[a] | – | –
O=C1CCCCCN1c1cccc(Nc2ncc(Cl)c(NC3CCC3)n2)c1 [Compound 216] | 1.96[a] | – | –
O=C1CCCCN1c1cccc(Nc2ncc(Br)c(NC3CCC3)n2)c1 [Compound 217] | 1.77[a] | – | –
CC(C#N)c1ccc(Nc2ncc(Cl)c(NC3CCC3)n2)cc1 (stereo not shown) [Compound 234] | – | – | log p (physchem): 3.45[c]
CCSc1cccc(Nc2ncc(C(F)(F)F)c(NC3CCC3)n2)c1 [Compound 235] | – | – | log p (physchem): 4.8[c]
Ic1cnc(Nc2ccccc2)nc1NC1CCC1 [Compound 236] | 2.19[a] | – | –
CC(C)NC(=O)c1ccc(Nc2ncc(Cl)c(NC3CCC3)n2)cc1 [Compound 248] | – | – | log p (physchem): 2.68[c]
CCN(CC)C(=O)c1ccc(Nc2ncc(Cl)c(NC3CCC3)n2)cc1 [Compound 250] | – | – | log p (physchem): 3.19[c]
CC(=O)N(C)c1cccc(Nc2ncc(Cl)c(NC3CCC3)n2)c1 [Compound 261] | – | – | log p (physchem): 2.49[c]
O=C(c1cccc(Nc2ncc(Cl)c(NC3CCC3)n2)c1)N1CCOCC1 [Compound 262] | – | – | log p (physchem): 2.39[c]

SMILES | log p ([1]; pH 2.3) | log p [2] | further results
CS(=O)(=O)c1cccc(Nc2ncc(Cl)c(NC3CCC3)n2)c1 [Compound 263] | – | – | log p (physchem): 2.63[c]
Clc1ncc(Cl)c(NC2CCC2)n1 [Compound V-1, 2,5-Dichloro-N-cyclobutylpyrimidine-4-amine] | – | – | chromatographic logP ([1]; pH 2.3): 2.62
Clc1ncc(Br)c(NC2CCC2)n1 [Compound V-2, 5-Bromo-2-chloro-N-cyclobutylpyrimidine-4-amine] | – | – | chromatographic logP ([1]; pH 2.3): 2.87
Clc1ncc(I)c(NC2CCC2)n1 [Compound V-3, 2-Chloro-N-cyclobutyl-5-iodopyrimidine-4-amine] | – | – | chromatographic logP ([1]; pH 2.3): 3.08
FC(F)(F)c1cnc(Cl)nc1NC1CCC1 [Compound V-4, 2-Chloro-N-cyclobutyl-5-trifluoromethylpyrimidine-4-amine] | – | – | chromatographic logP ([1]; pH 2.3): 3.2
CNS(=O)(=O)c1ccc(Nc2ncc(Cl)c(NC3CCC3)n2)cc1 [compound 25] | 2.01[a] | – | –
CCCCNS(=O)(=O)c1ccc(Nc2ncc(Cl)c(NC3CCC3)n2)cc1 [compound 26] | 2.91[a] | – | –
CC(=O)c1ccc(Nc2ncc(Cl)c(NC3CCC3)n2)cc1 [compound 131] | – | 2.26[b] | –
O=C1CCCN1c1ccc(Nc2ncc(Cl)c(NC3CCC3)n2)cc1 [compound 133] | – | 1.66[b] | –
O=C1NC(=O)C(c2ccc(Nc3ncc(Cl)c(NC4CCC4)n3)cc2)N1 (stereo not shown) [compound 134] | – | 1.33[b] | –
CC(=O)c1ccc(Nc2ncc(Br)c(NC3CCC3)n2)cc1 [compound 145] | – | 2.65[b] | –
CCOC(=O)Nc1ccc(Nc2ncc(Br)c(NC3CCC3)n2)cc1O [compound 151] | – | 1.8[b] | –
COC(=O)c1ccc(Nc2ncc(Br)c(NC3CCC3)n2)cc1 [compound 158] | – | 2.84[b] | –
FC(F)C(F)(F)Oc1ccc(Nc2ncc(Br)c(NC3CCC3)n2)cc1 [compound 159] | – | 3.1[b] | –
CCCCC(=O)Oc1ccc(Nc2ncc(Br)c(NC3CCC3)n2)cc1 [compound 161] | – | 4.32[b] | –
O=C(Nc1cccc(Nc2ncc(Br)c(NC3CCC3)n2)c1)c1ccccc1 [compound 168] | – | 2.46[b] | –
FC(F)C(F)(F)Oc1cccc(Nc2ncc(Br)c(NC3CCC3)n2)c1 [compound 170] | – | 3.37[b] | –
FC(F)(F)Oc1cccc(Nc2ncc(Br)c(NC3CCC3)n2)c1 [compound 182] | – | 4.15[b] | –
FC(F)(F)Oc1ccc(Nc2ncc(Br)c(NC3CCC3)n2)cc1 [compound 183] | – | 3.73[b] | –
CC1(C(=O)Nc2ccc(Nc3ncc(Br)c(NC4CCC4)n3)cc2)CC1 [compound 189] | – | 2[b] | –
CCC(=O)c1cc(Nc2ncc(Br)c(NC3CCC3)n2)ccc1O [compound 194] | – | 2.39[b] | –
Cc1cc(O)ccc1Nc1ncc(Br)c(NC2CCC2)n1 [compound 198] | – | 1.47[b] | –
O=C(Nc1cccc(Nc2ncc(Br)c(NC3CCC3)n2)c1)Oc1ccccc1 [compound 199] | – | 2.51[b] | –
Clc1cnc(Nc2ccc(NC3CC3)cc2)nc1NC1CCC1 [compound 207] | – | 0.71[b] | –
Clc1cnc(Nc2ccc(I)cc2)nc1NC1CCC1 [compound 230] | – | 3.49[b] | –

The next lines start with results.

log p ([1]; pH 2.3) | log p [2] | SMILES | further results
2.58^[a] | – | CN(C)S(=O)(=O)c1ccc(Nc2ncc(Cl)c(NC3CCC3)n2)cc1.Cl [Compound 2-7] | –
1.95^[a] | – | Cc1ccc(S(=O)(=O)O)cc1.Cc1nc(Nc2ccccc2)nc(NC2CCC2)c1Cl [Compound 2-8] | –
2.15[a]; | – | Fc1ccc(Nc2ncc(Cl)c(NC3CCC3)n2)cc1 [Compound 47] | log p (physchem): 3.7[c]
2.64[a]; | – | O=C1CCCN1c1cccc(Nc2ncc(C(F)(F)F)c(NC3CCC3)n2)c1 [Compound 55] | log p (physchem): 3.09[c]
2.69[a]; | – | O=C1CCCN1c1cc(Nc2ncc(C(F)(F)F)c(NC3CCC3)n2)ccc1F [Compound 211] | log p (physchem): 2.96[c]
1.75[a] | – | O=C1CCCN1c1cc(Nc2ncc(Cl)c(NC3CCC3)n2)ccc1F [Compound 212] | –
2.7[a] | – | NS(=O)(=O)c1cc(Nc2ncc(Cl)c(NC3CCC3)n2)cc(C(F)(F)F)c1 [compound 24] | –
1.62[a] | – | NS(=O)(=O)c1ccc(Nc2ncc(Cl)c(NC3CCC3)n2)cc1 [compound 27] | –
2.73[a] | – | CC(C)(C)OC(=O)N1CCN(c2ccc(Nc3ncc(Cl)c(NC4CCC4)n3)cc2)CC1 [compound 28] | –
– | 1.87[b] | CC1(C(=O)Nc2ccc(Nc3ncc(Cl)c(NC4CCC4)n3)cc2)CC1 [compound 122] | –
– | 1.8[b] | C=C(C)C(=O)Nc1cccc(Nc2ncc(Cl)c(NC3CCC3)n2)c1 [compound 124] | –
– | 1.5[b] | CNC(=O)c1cccc(Nc2ncc(Cl)c(NC3CCC3)n2)c1 [compound 127] | –
– | 2.3[b] | O=S(=O)(c1cccc(Nc2ncc(Cl)c(NC3CCC3)n2)c1)N1CCCCC1 [compound 130] | –
– | 1.59[b] | O=C1OCCN1c1ccc(Nc2ncc(Cl)c(NC3CCC3)n2)cc1 [compound 132] | –
– | 1.8[b] | CCOC(=O)Nc1ccc(Nc2ncc(Cl)c(NC3CCC3)n2)cc1 [compound 136] | –
– | 3.98[b] | Fc1cc(F)cc(Nc2ncc(Br)c(NC3CCC3)n2)c1 [compound 144] | –
– | 2.7[b] | CC(=O)N(c1ccc(Nc2ncc(Br)c(NC3CCC3)n2)cc1)C1CCCCC1 [compound 163] | –
– | 1.83[b] | CC(C)C(=O)Nc1ccc(Nc2ncc(Br)c(NC3CCC3)n2)cc1 [compound 169] | –
– | 4.32[b] | O=S(=O)(c1ccc(Nc2ncc(Br)c(NC3CCC3)n2)cc1)C(F)(F)F [compound 193] | –
– | 1.18[b] | CNc1ccc(Nc2ncc(Br)c(NC3CCC3)n2)cc1 [compound 213] | –
– | 3.36[b] | CC1(Nc2nc(Nc3ccccc3)ncc2C(F)(F)F)CCC1 [compound 232] | –
3.32[a] | – | CN(c1nc(Nc2ccccc2)ncc1Cl)C1CCC1 [compound 245] | –
– | 3.26[b] | CC(C)(C)c1cccc(Nc2ncc(Cl)c(NC3CCC3)n2)c1 [compound 255] | –
